Experimental data from patent US20130045991A1, “NEUROPROTECTIVE MODULATION OF NMDA RECEPTOR SUBTYPE ACTIVITIES” (THE UNIVERSITY OF BRITISH COLUMBIA, priority 2005, published 2013).

Tests used:
[1] = tested on: synaptic NMDA receptors; test: mEPSC recording, NMDA receptor-mediated component; assay type: cell-based, rat
[2] = tested on: cortical neurons; test: NMDA-mediated excitotoxicity: neuronal apoptosis in cortical cultures; assay type: cell-based, rat; details: 50 μM NMDA plus 10 μM glycine 20 min, assayed 20 h after; APV 50 μM, Ro25-6981 0.5 μM, NVP-AAM077 0.4 μM
Description: (§1) Mature neurons (11-14 DIV) were used for experiments.
(§2) To visualize injured neurons, Hoechst-33342 (10 μg/ml) was added to the culture medium 20 h after treatments and incubated for 45 min at 37 °C. Images were taken with a Leica DMIRE2 fluorescence microscope. Quantitative assessment of neuronal apoptosis was performed 20 h following treatments using a Cell Death Detection […] Kit (Roche Applied Science). Absorbance readings were determined using a spectrophotometric microplate reader. Data analyses were carried out according to the manufacturer's instructions. Data are expressed as the difference in apoptosis relative to control and are expressed as a percentage.

[3] = tested on: AMPA subtype glutamate receptor; test: mEPSC recording, fast AMPA receptor-mediated component; assay type: cell-based, rat; details: -60 mV, zero added Mg2+
[4] = tested on: middle cerebral artery occlusion (MCAo); test: MCAo focal ischemic stroke model, post-ischemic treatment; assay type: in vivo, rat
Excerpt: In some clinical settings, it is desirable to implement therapy after the onset of neuronal injury, such as stroke or other ischemic events.
Transient cerebral focal ischemia was produced by middle cerebral artery occlusion (MCAo) as described (Aarts et al., 2002; Bederson et al., 1986; Longa et al., 1989). Briefly, male Sprague-Dawley rats (Charles River Laboratories) weighing ˜300 g were anesthetized and MCAo was achieved by introducing a 3-0 monofilament suture into the MCA via the internal carotid artery. Body temperature was maintained at 37.0±0.5° C., and blood pressure and blood gases were monitored during the experiments. Animals were sacrificed 24 h following MCAo onset. Cerebral infarction was analyzed using brain sections stained with hematoxylin and eosin (H & E) or 2,3,5-triphenyltetrazolium chloride (TTC). 10 min before the animals were sacrificed, two tests, the postural reflex test to examine upper body posture (Bederson et al., 1986) and the forelimb placing test to examine sensorimotor integration in forelimb placing responses to visual, tactile, and proprioceptive stimuli (De Ryck et al., 1989), were performed to grade neurological function on a scale of 0 to 12 (0=normal, 12=worst). In the pretreatment study, a single bolus of drugs (NR2A-specific antagonist NVP-AAM077 (2.4 mg/kg) or NR2B specific antagonist Ro 25-6981 (6 mg/kg) or vehicle (saline)) was infused intravenously 30 min before a 1-h MCAo. For post-treatment experiments, animals were subjected to a 1.5-h MCAo and drug treatments (glycine, 800 mg/kg; NVP-AAM077 and Ro 25-6981 at the same doses as in the pretreatment study) were then given via intraperitoneal injection (i.p.) 3 h after reperfusion (4.5 h after the onset of MCAo).
The activating effect on NR2A-containing receptors was mimicked with the application of the NMDA receptor co-agonist glycine in the presence of an […] NR2B antagonist. Glycine by itself potentiates the function of NMDA receptors that are activated by endogenously released glutamate from presynaptic terminals both in vitro and in vivo (Johnson et al., 1987; Lu et al., 2001; De et al., 2000).

[5] = tested on: cortical neurons; test: Staurosporine (STS)-induced neuronal apoptosis; assay type: cell-based, rat; details: NMDA 200 μM, 5 min, Ro 25-6981 0.5 μM present
Excerpt: In alternative aspects of the invention, we have achieved specific activation of NR2A-containing receptors using two different strategies. First, we examined the effect of selective activation of extrasynaptic NR2A-containing receptor activation on neuronal appopotosis induced by staurosporine (STS), a potent apoptosis inducer (Budd et al., 2000). […] The NMDA-induced neuronal protection was indeed mediated by NR2A-containing receptors as it was prevented by co-application of NVP-AAM077 (p<0.001 compared with STS alone).
Dissociated cultures of cortical neurons were prepared from 18-day Sprague-Dawley rat embryos as described previously (Mielke et al., 2005). To obtain mixed cortical cultures enriched with neurons, uridine (10 μM) and 5-Fluor-2′-deoxyuridine (10 μM) were added to the culture medium at 3 DIV and maintained for 48 h, to inhibit non-neuronal cell proliferation, before the cultures were shifted back to the normal culture medium. Mature neurons (11-14 DIV) were used for experiments. To induce neuronal apoptosis, cortical cultures were stimulated with NMDA (50 μM) and glycine (10 μM) for 20 min, or STS (100 nM) for 1 h in Mg2+-free extracellular solution (ECS) containing (mM): 25 HEPES acid, 140 NaCl, 33 glucose, 5.4 KCl and 1.3 CaCl2, with pH 7.35 and osmolarity 320-330 mOsm. […]
To visualize injured neurons, Hoechst-33342 (10 μg/ml) was added to the culture medium 20 h after treatments and incubated for 45 min at 37 °C. Images were taken with a Leica DMIRE2 fluorescence microscope. Quantitative assessment of neuronal apoptosis was performed 20 h following treatments using a Cell Death Detection ELISAPLUS Kit (Roche Applied Science). Absorbance readings were determined using a spectrophotometric microplate reader. […] Data are expressed as the difference in apoptosis relative to control and are expressed as a percentage.

[6] = tested on: permanent focal ischemia; details: in vivo; cited from earlier work
[7] = tested on: NR1C and NR2B receptors over NR1C+NR2A receptors; details: cited from earlier work
[8] = tested on: acute ischaemic stroke in the carotid artery territory; details: sublingual 1.0-2.0 g/day started within 6 h after onset; cited from earlier work
[9] = tested on: cortical neurons; test: Glycine pretreatment before NMDA-induced neuronal apoptosis; assay type: cell-based, rat
Description: as §1, §2

N[C@@H](CCCP(=O)(O)O)C(=O)O [APV]
effect on slow NMDA receptor-mediated component of mEPSCs ([1]; -60 mV, zero added Mg2+, APV 50 μM, Ro 25-6981 0.5 μM): fully blocked
effect on NMDA-induced neuronal apoptosis/damage [2]: fully blocked

O=C1N=c2cc([N+](=O)[O-])c([N+](=O)[O-])cc2=NC1=O [DNQX, 6,7-dinitroquinoxaline-2,3-dione]
effect on fast AMPA receptor-mediated component of mEPSCs [3]: completely blocked

C[C@]12N[C@H](Cc3ccccc31)c1ccccc12 [MK-801]
blockade of synaptic NMDA receptors (APV-sensitive component of mEPSCs) ([1]; MK-801 10 μM co-applied with bicuculline 50 μM, within 10 min): complete blockade
effect of co-administration on the glycine effect (infarct volume reduction) ([4]; co-administered with glycine 800 mg/kg 4.5 h after stroke onset): virtually completely abolished
neuroprotection / total infarct volume compared with MCAo alone ([4]; given 3 h after 1.5-h MCAo (4.5 h after stroke onset), MK801 1 mg/Kg, glycine 800 mg/Kg, Ro 25-6981 6 mg/Kg): did not provide any noticeable neuroprotection

CN[C@H](CC(=O)O)C(=O)O [NMDA, N-methyl-D-aspartate]
effect on STS-induced apoptosis ([5]; STS 100 nM, 1 h): significantly reduced STS-induced apoptosis
neuronal apoptosis on its own ([5]; synaptic receptors blocked (MK-801 + bicuculline)): did not increase neuronal apoptosis on its own

Cc1ccc(CC2(O)CCN(CCOc3ccc(O)cc3)CC2)cc1 [Ro 63-1908, 1-[2-(4-hydroxy-phenoxy)-ethyl]-4-(4-methyl-benzyl)-piperidin-4-ol]
neuroprotective effect against cortical damage [6]: dose-related neuroprotective effect
selectivity for the NR1C and NR2B receptors over NR1C+NR2A receptors [7]: 20,000 fold

NCC(=O)O [glycine, Glycine]
neuroprotection / total infarct volume compared with MCAo alone ([4]; rat, in vivo): remarkable reduction in total infarct volume
clinical effects [8]: favourable clinical effects
effect of pretreatment on NMDA-induced neuronal apoptosis [9]: significantly reduced NMDA-induced neuronal apoptosis
